In patent US5776734A, “DNA encoding the β subunit of a mammalian maxi-K potassium channel” (Merck & Co., Inc., priority 1996, dated 1998):

Assays:
[1] = biological target: T1, purified maxi-K channel from bovine tracheal smooth muscle (Bos taurus, UniProt Q28067+Q28204); assay: [125I]ChTX binding to purified maxi-K channel (ChTX receptor); details: for inhibition of 125I-ChTX binding to the purified maxi-K channel: in a manner similar to native tissue channels
T1 construct: Purified sarcolemmal membrane vesicles derived from bovine tracheal smooth muscle; from tissue; host or cells: bovine tracheal smooth muscle sarcolemmal membranes
T1 sequence (Q28204 whole entry): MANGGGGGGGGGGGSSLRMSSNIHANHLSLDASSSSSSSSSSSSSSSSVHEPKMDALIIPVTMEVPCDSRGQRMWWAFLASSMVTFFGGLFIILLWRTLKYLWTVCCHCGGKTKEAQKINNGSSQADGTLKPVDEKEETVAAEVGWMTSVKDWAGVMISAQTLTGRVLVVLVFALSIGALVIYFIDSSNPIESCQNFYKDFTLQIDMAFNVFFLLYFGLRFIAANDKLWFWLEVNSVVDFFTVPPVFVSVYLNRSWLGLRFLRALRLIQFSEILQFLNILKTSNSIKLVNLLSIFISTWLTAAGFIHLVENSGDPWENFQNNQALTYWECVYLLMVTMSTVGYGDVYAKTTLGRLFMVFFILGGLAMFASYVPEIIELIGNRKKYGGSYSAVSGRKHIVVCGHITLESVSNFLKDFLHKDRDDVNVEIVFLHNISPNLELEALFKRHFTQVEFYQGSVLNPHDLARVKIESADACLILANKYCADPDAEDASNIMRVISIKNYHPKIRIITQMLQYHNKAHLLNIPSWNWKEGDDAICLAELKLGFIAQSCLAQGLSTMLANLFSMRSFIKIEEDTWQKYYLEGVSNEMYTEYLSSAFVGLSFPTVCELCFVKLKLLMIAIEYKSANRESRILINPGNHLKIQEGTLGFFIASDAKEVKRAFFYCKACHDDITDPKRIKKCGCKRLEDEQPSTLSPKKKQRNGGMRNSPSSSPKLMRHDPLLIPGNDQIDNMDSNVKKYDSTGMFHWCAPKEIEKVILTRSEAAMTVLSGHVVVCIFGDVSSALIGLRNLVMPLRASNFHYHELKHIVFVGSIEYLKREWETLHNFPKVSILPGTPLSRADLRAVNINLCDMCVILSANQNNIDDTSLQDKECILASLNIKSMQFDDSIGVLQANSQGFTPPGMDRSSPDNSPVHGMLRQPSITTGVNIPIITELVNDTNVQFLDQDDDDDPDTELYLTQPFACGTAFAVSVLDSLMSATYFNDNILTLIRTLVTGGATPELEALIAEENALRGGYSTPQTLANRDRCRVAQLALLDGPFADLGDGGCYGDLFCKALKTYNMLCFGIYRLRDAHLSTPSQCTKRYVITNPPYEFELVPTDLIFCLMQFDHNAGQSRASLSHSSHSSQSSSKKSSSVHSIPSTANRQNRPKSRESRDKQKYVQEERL
T1 sequence (Q28067 2-191): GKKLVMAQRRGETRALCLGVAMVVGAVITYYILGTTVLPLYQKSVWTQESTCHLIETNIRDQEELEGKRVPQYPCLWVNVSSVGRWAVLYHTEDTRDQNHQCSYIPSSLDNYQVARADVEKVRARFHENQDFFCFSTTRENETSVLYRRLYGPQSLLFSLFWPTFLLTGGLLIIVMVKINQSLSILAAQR
Procedure: Purified sarcolemmal membrane vesicles derived from bovine tracheal smooth muscle were prepared as previously described (Slaughter, R. S., Shevell, J. L., Felix, J. P., Garcia, M. L., and Kaczorowski, G. J., Biochemistry 28, 3995-4002 (1989)). The interaction of [^125 I]ChTX (New England Nuclear Corporation) with maxi-K channels in bovine tracheal sarcolemmal membrane vesicles was monitored as outlined previously (Vazquez, J., Feigenbaum, P., Katz, G., King, V. F., Reuben, J. P., Roy-Contancin, L., Slaughter, R. S., Kaczorowski, G. J., and Garcia, M. L., J. Biol. Chem. 264, 20902-20909 (1989)). Binding of radiolabeled toxin to solubilized channels was measured by incubating aliquots of solubilized material in 0.05% digitonin with [^125 I]ChTX as described (Garcia-Calvo, M., Vazquez, J., Smith, M., Kaczorowski, G. J., and Garcia, M. L. Biochemistry 30, 11157-11164 (1991)). At the end of the incubation period, protein was precipitated by addition of 10% (w/v) PEG (Mw~8000) in the presence of […] and the precipitate was immediately collected onto GF/C glass fiber filters (Whatman) that had been presoaked in 0.5% polyethylenimine. Nonspecific binding was determined in the presence of 10 nM ChTX (Peninsula Laboratories). For each experiment, triplicate assays were routinely performed, and the data were averaged. The standard error of the mean of these replicates was typically less than 3%.

[2] = test system: maxi-K channel α and β subunits coexpressed in Xenopus oocytes; assay: Two-electrode voltage clamp of Xenopus oocytes injected with α and β subunit cRNAs; format: cell-based, mouse α subunit, bovine β subunit; details: oocytes injected with both α and β subunit cRNAs
maxi-K channel α and β subunits coexpressed in Xenopus oocytes, sequence (Q08460 66-642 limits assumed): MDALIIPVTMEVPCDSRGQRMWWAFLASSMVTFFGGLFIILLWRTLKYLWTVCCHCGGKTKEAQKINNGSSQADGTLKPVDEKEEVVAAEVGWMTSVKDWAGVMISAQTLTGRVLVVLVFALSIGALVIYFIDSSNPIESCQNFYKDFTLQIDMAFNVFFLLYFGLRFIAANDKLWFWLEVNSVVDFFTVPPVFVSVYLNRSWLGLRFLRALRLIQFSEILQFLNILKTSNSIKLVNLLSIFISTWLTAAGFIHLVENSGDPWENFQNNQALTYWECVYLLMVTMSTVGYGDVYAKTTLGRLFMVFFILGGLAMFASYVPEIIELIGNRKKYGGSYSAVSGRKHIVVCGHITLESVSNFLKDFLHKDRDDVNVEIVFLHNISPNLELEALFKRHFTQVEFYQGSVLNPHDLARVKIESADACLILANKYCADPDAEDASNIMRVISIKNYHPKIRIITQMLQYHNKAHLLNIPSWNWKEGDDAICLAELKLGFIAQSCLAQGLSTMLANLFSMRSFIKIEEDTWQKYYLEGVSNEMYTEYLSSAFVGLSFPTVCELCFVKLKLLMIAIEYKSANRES
maxi-K channel α and β subunits coexpressed in Xenopus oocytes, sequence (as listed by the source): as the sequence (Q28067 2-191) above
Source text: (§1) cDNAs encoding both the α and β subunits were used as templates for the production of cRNA. The α subunit cDNA was obtained from Leo Pallanck (Univ. of Wisconsin) and consisted of a full-length mouse brain cDNA (mslo19; GenBank Accession #U09383) in an RNA transcription vector, pGH. […] We therefore used standard techniques to modify the mslo19 cDNA, specifically by deleting the 5' non-coding sequence (bases 1 to 940), and replacing that sequence with a consensus eukaryotic translation initiation sequence: 5'-GCCGCCACC-3'. […] A fragment of the β subunit cDNA, including the entire open reading frame, was subcloned into a pGEM (Promega, inc.) vector for cRNA transcription. The cRNAs encoding both the α and β subunits were transcribed using the appropriate RNA polymerase as determined by the transcription vector (T7 for α, and SP6 for β) and capped in vitro using a kit (mCAP; Stratagene, inc), purified by size-exclusion chromatography using sepahadex G-50 spin columns (Bio-Rad, inc.), and analyzed for purity and length by agarose/formaldehyde gel electrophoresis according to established procedures. […]
(§2) Currents were recorded from Xenopus oocytes using two-electrode voltage-clamp methods to record currents from the entire oocyte and patch-clamp methods to record current from small patches of membrane excised from the oocytes. […]

[3] = test system: maxi-K channel α subunit (mslo19) expressed in Xenopus oocytes; assay: Two-electrode voltage clamp of Xenopus oocytes injected with α subunit cRNA alone; format: cell-based, mouse; details: for block of outward potassium currents: no concentration given; for block of outward currents in whole-oocyte voltage clamp: toxin at 10 to 30 nM
maxi-K channel α subunit (mslo19) expressed in Xenopus oocytes, sequence (Q08460 66-642 limits assumed): as the sequence (Q08460 66-642 limits assumed) above
Source text: cDNAs encoding both the α and β subunits were used as templates for the production of cRNA. The α subunit cDNA was obtained from Leo Pallanck (Univ. of Wisconsin) and consisted of a full-length mouse brain cDNA (mslo19; GenBank Accession #U09383) in an RNA transcription vector, pGH. […] We therefore used standard techniques to modify the mslo19 cDNA, specifically by deleting the 5' non-coding sequence (bases 1 to 940), and replacing that sequence with a consensus eukaryotic translation initiation sequence: 5'-GCCGCCACC-3'. […] A fragment of the β subunit cDNA, including the entire open reading frame, was subcloned into a pGEM (Promega, inc.) vector for cRNA transcription. The cRNAs encoding both the α and β subunits were transcribed using the appropriate RNA polymerase as determined by the transcription vector (T7 for α, and SP6 for β) and capped in vitro using a kit (mCAP; Stratagene, inc), purified by size-exclusion chromatography using sepahadex G-50 spin columns (Bio-Rad, inc.), and analyzed for purity and length by agarose/formaldehyde gel electrophoresis according to established procedures. Following ethanol precipitation, cRNAs were resuspended in sterile, DEPC-treated water at a concentration of 0.1 to 1 μg/μl, and stored in 2 μl aliquots at […].
Injection of mRNA or cRNA into Xenopus oocytes was done by a modification of established protocols (A. Coleman, Transcription and Translation: A Practical Approach. B. D. Hanes, S. J. Higgins, Eds., 1984); Y. Masu, et al., Nature 329, 836-838 (1987)). Oocytes were surgically removed from 0.17% tricaine anesthetized Xenopus laevis (Xenopus One). The excised ovarian lobes were teased apart with jeweler's forceps and then placed into OR-2 (82.5 mM NaCl, 2 mM KCl, 1 mM MgCl2, 5 mM HEPES, pH 7.4) containing 2 mg/ml collagenase β (Boehringer Mannhiem) for 2 hours at room temperature with a change of the buffer at 1 hour. Isolated oocytes were repeatedly washed in OR-2 until the supernatant remained clear. Stage 5 and 6 oocytes were selected and cultured overnight in supplemented OR-2 (OR-2 containing 1.8 mM CaCl2 and 0.5 mg/ml gentamycin. Oocytes were injected with 46 nl of RNA at a concentration of 0.1 to 1.0 mg/ml in H2 O. RNA was injected using a Nanoject automatic oocyte injector (Drummond Scientific) and injection needles were pulled from 3.5" Drummond capillaries using a Micropipette puller (Kopf Instruments).
as §2, with “oocytes. Recordings were done at room temperature and were performed 1 to 30 days after injection.” for “oocytes.”

[4] = biological target: maxi-K channel α and β subunits coexpressed in Xenopus oocytes (UniProt Q08460+Q28067); assay: Patch clamp of excised inside-out patches from oocytes injected with α and β subunit cRNAs; format: cell-based, mouse α subunit, bovine β subunit; details: both subunits; 100-300 nM applied to the intracellular face of the channel
maxi-K channel α and β subunits coexpressed in Xenopus oocytes (UniProt Q08460+Q28067), sequence (Q08460 whole entry): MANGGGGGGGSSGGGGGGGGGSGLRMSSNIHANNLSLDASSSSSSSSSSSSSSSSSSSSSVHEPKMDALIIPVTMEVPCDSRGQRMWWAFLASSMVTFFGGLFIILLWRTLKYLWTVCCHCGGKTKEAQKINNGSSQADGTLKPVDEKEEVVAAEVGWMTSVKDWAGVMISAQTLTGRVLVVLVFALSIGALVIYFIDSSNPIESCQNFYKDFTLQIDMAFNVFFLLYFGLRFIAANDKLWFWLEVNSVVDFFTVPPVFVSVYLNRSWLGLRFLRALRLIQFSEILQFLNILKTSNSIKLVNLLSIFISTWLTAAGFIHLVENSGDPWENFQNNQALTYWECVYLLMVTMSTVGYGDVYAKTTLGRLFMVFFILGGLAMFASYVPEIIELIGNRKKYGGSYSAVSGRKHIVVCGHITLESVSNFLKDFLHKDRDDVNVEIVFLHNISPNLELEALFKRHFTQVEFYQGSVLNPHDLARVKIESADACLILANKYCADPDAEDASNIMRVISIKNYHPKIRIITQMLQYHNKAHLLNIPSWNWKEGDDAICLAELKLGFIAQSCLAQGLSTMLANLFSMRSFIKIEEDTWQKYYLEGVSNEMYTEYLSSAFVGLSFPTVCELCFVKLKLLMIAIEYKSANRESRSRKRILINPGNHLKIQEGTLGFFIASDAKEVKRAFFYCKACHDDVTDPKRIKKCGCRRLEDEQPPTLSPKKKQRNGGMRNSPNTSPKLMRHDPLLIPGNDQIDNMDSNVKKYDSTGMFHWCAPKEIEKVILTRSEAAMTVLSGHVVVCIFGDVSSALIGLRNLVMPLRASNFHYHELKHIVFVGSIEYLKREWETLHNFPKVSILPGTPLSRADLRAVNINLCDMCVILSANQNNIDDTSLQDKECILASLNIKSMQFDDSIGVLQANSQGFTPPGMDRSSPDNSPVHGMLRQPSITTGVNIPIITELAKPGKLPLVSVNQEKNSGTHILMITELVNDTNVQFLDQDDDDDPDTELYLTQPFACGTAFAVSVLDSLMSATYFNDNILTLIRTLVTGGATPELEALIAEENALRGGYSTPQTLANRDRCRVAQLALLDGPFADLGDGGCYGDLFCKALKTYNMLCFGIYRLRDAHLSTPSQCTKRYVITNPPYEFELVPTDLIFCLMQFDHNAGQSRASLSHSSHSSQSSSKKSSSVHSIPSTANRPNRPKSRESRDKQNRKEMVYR
maxi-K channel α and β subunits coexpressed in Xenopus oocytes (UniProt Q08460+Q28067), sequence (Q28067 whole entry): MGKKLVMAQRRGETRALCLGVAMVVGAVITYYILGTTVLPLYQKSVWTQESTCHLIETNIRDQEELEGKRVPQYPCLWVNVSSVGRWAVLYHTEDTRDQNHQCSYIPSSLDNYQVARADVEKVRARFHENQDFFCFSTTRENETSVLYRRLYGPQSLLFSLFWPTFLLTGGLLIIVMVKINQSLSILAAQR
Source text: as §1, §2

[5] = biological target: maxi-K channel α subunit (mslo19) expressed in Xenopus oocytes (Mus musculus, UniProt Q08460); assay: Patch clamp of excised inside-out patches from oocytes injected with α subunit cRNA alone; format: cell-based; details: 100-500 nM
maxi-K channel α subunit (mslo19) expressed in Xenopus oocytes (Mus musculus, UniProt Q08460), sequence (Q08460 whole entry): as the sequence (Q08460 whole entry) above
Source text: as §1, §2

[6] = biological target: T2, 31,000 component (β subunit) of purified ChTX receptor (Bos taurus, UniProt Q28067+Q28204); assay: Covalent crosslinking of [125I]ChTX to purified receptor with disuccinimidyl suberate, SDS-PAGE; format: binding, bovine; details: in the presence of disuccinimidyl suberate
T2 construct: Purified sarcolemmal membrane vesicles derived from bovine tracheal smooth muscle; from tissue; host or cells: bovine tracheal smooth muscle sarcolemmal membranes
T2 sequence (Q28204 whole entry): as the sequence (Q28204 whole entry) above
T2 sequence (Q28067 2-191): as the sequence (Q28067 2-191) above
Procedure: Fractions from the last sucrose density gradient centrifugation containing 31-158 ng of protein were dialyzed against 10 mM Na-borate, pH 9.0, 0.05% Triton X-100 and then reacted with 3.5 mCi of [^125 I]Bolton-Hunter reagent (2200 Ci/mmol; New England Nuclear Corporation) for 15 min on ice. The reaction was quenched by addition of Tris-HCl, pH 7.4 to a final concentration of 100 mM. Covalent incorporation of [^125 I]ChTX into the purified receptor was accomplished with the bifunctional reagent, disuccinimidyl suberate as previously described for crosslinking ChTX to its receptor in membranes (Garcia-Calvo, M., Vazquez, J., Smith, M., Kaczorowski, G. J., and Garcia, M. L. (1991) Biochemistry 30, 11157-11164). Briefly, the purified receptor preparation was incubated with 130 pM [^125 I]ChTX in 10 mM NaCl, 10 mM Taps-NaOH, pH 9.0, 0.1% digitonin, in the absence or presence of unlabeled ChTX, for two hours at room temperature. The solution was then adjusted to 0.2M NaCl and disuccinimidyl suberate was added to a final concentration of 0.18 mM. After incubation at room temperature for 1 min, the reaction was stopped by addition of Tris-HCl, pH 7.4 to a final concentration of 200 mM. Samples were dialyzed against 10 mM Tris-HCl, pH 7.4, 0.05% digitonin, concentrated 10 fold, and subjected to SDS-PAGE. […]

^125 I-ChTX: radiolabeled toxin (New England Nuclear Corporation)
binding affinity for the purified channel compared with the native maxi-K channel ([1]; purified channel from bovine tracheal smooth muscle): similar

charybdotoxin [ChTX]
block of outward potassium currents [2]: blocked
inhibition of 125I-ChTX binding to the purified maxi-K channel [1]: inhibited
block of outward potassium currents [3]: blocked
block of outward currents in whole-oocyte voltage clamp [3]: blocked

dehydrosoyasaponin I [DHS-I]
channel activation [4]: fully activated
effect on channel open probability / patch currents [5]: not increased

limbatustoxin [LbTX]
inhibition of 125I-ChTX binding to the purified maxi-K channel [1]: inhibited

[Ba] [barium]
inhibition of 125I-ChTX binding to the purified maxi-K channel [1]: inhibited

[K+] [potassium]
effect on [125I]ChTX labeling of the 31,000 component [6]: abolished
inhibition of 125I-ChTX binding to the purified maxi-K channel [1]: inhibited

iberiotoxin (QFTDVDCSVSKECWSVCKDLFGVDRGKCMGKKCRCYQ) [IbTX]
effect on [125I]ChTX labeling of the 31,000 component [6]: abolished
block of outward potassium currents [2]: blocked
inhibition of 125I-ChTX binding to the purified maxi-K channel [1]: inhibited
block of outward potassium currents [3]: blocked
block of outward currents in whole-oocyte voltage clamp [3]: blocked

[Cs] [cesium]
inhibition of 125I-ChTX binding to the purified maxi-K channel [1]: inhibited
